# Laboratory results from patent US5854002A (Rhone Poulenc, Inc., priority 1996, dated 1998).
# Read-outs that look alike come from different tables or passages of the source.
# Key:
# [1] = target: Rat brain; assay: [3H] muscimol binding, rat brain (previous assays of the inventors); conditions: previous assays by the inventors; for IC50: half-maximal displacement of [3H] muscimol
# Source text: Data from fly heads and rat brains were obtained as described in Table 2.
# [2] = system: Housefly heads; conditions: from Lunt et al. (1985), cited from earlier work; for IC50: half-maximal displacement of [3H] muscimol, read-out: IC50, Fly Heads
# [3] = target: T1, Drosophila Rdl (Drosophila melanogaster, UniProt P25123); assay: [3H] muscimol radioligand binding assay, membranes of High Five cells infected with vBP8-Rdl
# T1 construct: excised the full-length cDNA encoding Rdl; made in house; host or cells: High Five (Trichoplusia ni) cells, baculovirus vBP8-Rdl
# T1 sequence (P25123 45-606): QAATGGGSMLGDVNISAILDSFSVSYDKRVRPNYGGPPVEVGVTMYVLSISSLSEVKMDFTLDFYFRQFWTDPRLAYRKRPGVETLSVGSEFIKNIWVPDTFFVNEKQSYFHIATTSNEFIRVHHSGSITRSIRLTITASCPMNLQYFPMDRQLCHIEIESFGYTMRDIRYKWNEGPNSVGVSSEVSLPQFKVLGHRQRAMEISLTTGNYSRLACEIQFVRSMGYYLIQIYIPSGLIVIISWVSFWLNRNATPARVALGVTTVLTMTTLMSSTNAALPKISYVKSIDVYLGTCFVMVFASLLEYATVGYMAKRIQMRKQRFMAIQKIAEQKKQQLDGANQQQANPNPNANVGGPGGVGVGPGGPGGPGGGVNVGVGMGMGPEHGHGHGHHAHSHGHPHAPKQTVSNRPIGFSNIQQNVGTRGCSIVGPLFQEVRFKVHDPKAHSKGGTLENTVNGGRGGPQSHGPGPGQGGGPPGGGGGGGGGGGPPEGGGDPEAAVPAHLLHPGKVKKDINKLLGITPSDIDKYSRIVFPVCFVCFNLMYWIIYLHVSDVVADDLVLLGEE
# Protocol: (§1) High Five™ cells (derived from the cabbage loper, Trichoplusia ni, Invitrogen Corp.) were infected with vBP8-Rdl, vBP8-LCCH3, or vBP8-Grd, either singly or in various combinations. Cells were harvested at 3 days post-infection in tubes of approximately 6×10^7 cells per tube, the cells were pelleted by centrifugation, the supernatants discarded, and the pellets immediately stored at -80° C. This amount of tissue is sufficient for one 96-well microtiter plate. Membranes were prepared by first thawing and then resuspending the cell pellet in 25 mL of 10 mM phosphate buffer pH 7.4. The cells were gently homogenized with five strokes in a glass/Teflon homogenizer and the membranes pelleted by centrifugation at 120,000 g for 30 minutes. The membrane pellet was resuspended in 25 mL of 10 mM phosphate buffer pH 7.4, re-pelleted as above, and the pellet finally resuspended in 3 mL of buffer. The protein concentration was determined by the Bradford method (Bradford (1976) Anal. Biochem. 79:248) and then adjusted to 625 μg of protein per mL of 10 mM PBS, pH 7.4.
# (§2) The reactions were incubated for 90 minutes at 4° C., and then terminated by filtration through Whatman GF/B glass fiber filters. Filters were washed with two 5 mL aliquots of cold buffer, and the radioactivity remaining on the filters was determined by liquid scintillation. Multiple assays were performed to test numerous compounds.
# [4] = target: T2, Drosophila Grd and LCCH3 (Drosophila melanogaster, UniProt Q08832+Q24352); assay: [3H] muscimol radioligand binding assay, membranes of High Five cells co-infected with vBP8-Grd/vBP8-LCCH3
# T2 construct: made in house; host or cells: High Five (Trichoplusia ni) cells, co-infected with vBP8-Grd and vBP8-LCCH3
# T2 sequence (Q24352 59-686): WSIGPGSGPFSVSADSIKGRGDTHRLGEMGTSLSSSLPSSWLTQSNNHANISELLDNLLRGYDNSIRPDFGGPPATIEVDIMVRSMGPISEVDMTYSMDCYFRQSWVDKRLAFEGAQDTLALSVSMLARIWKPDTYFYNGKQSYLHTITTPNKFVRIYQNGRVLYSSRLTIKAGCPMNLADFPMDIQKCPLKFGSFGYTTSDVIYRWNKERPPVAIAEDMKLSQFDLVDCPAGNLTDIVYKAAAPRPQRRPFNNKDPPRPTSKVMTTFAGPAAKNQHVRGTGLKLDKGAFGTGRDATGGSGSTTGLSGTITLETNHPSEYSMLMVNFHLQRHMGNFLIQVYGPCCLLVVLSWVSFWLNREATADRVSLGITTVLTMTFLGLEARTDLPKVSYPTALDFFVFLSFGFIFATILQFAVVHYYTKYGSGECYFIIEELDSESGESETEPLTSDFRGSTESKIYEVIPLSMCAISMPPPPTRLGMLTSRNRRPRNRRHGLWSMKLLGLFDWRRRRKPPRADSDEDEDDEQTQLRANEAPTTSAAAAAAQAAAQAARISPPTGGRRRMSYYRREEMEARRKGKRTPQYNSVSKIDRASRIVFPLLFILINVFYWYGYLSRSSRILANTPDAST
# T2 sequence (Q08832 21-496): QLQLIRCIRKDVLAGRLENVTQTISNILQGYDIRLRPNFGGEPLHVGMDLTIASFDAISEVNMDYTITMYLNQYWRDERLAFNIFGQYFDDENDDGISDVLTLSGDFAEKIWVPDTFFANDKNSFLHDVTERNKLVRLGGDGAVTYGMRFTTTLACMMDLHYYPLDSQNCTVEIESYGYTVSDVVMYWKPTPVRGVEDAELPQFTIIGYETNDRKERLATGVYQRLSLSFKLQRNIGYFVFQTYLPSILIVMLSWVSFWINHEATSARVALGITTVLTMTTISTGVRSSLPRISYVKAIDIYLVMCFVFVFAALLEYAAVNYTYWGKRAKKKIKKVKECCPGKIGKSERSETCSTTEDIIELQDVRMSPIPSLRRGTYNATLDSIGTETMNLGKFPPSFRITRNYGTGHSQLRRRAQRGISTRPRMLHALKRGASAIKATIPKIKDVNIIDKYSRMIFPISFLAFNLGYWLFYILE
# Protocol: as §1
# The radioligand binding assays were composed of 200 μL membrane preparation (containing 125 μg protein), 100 μL of [^3 H] muscimol (to give a final concentration of 5 nM), 20 μL of unlabeled test compound, buffer or unlabeled muscimol, and 680 μL of 10 mM PBS, pH 7.4. […] The reactions were incubated for 90 minutes at 4° C., and then terminated by filtration through Whatman GF/B glass fiber filters. Filters were washed with two 5 mL aliquots of cold buffer, and the radioactivity remaining on the filters was determined by liquid scintillation. Multiple assays were performed to test numerous compounds.
# [5] = target: T3, Drosophila Rdl, Grd and LCCH3 (Drosophila melanogaster, UniProt P25123+Q08832+Q24352); assay: [3H] muscimol radioligand binding assay, membranes of High Five cells infected with vBP8-Grd/vBP8-LCCH3/vBP8-Rdl
# T3 construct: excised the full-length cDNA encoding Rdl; made in house; host or cells: High Five (Trichoplusia ni) cells, co-infected with vBP8-Grd, vBP8-LCCH3 and vBP8-Rdl
# T3 sequence (P25123 45-606): T1 sequence (P25123 45-606)
# T3 sequence (Q24352 59-686): T2 sequence (Q24352 59-686)
# T3 sequence (Q08832 21-496): T2 sequence (Q08832 21-496)
# Protocol: as §1, §2
# [6] = target: T4, Human α1 and rat β2 (UniProt P14867+P63138); assay: [3H] muscimol radioligand binding assay, positive control receptor expressed in insect cells; conditions: [3H] muscimol 5 nM, insect cell membranes
# T4 construct: made in house; host or cells: insect cells, baculoviruses vEV-humα1 and vEV-ratβ2
# [7] = target: T5, Drosophila LCCH3 (Drosophila melanogaster, UniProt Q08832); assay: [3H] muscimol radioligand binding assay, membranes of High Five cells infected with vBP8-LCCH3; conditions: High Five cell membranes
# T5 construct: made in house; host or cells: High Five (Trichoplusia ni) cells, baculovirus vBP8-LCCH3
# T5 sequence (Q08832 21-496): T2 sequence (Q08832 21-496)
# Protocol: as §1, with “The membrane pellet was resuspended in 25 mL of 10 mM phosphate buffer pH 7.4, re-pelleted as above, and the pellet finally resuspended in 3 mL of buffer.” left out
# (§3) The radioligand binding assays were composed of 200 μL membrane preparation (containing 125 μg protein), 100 μL of [^3 H] muscimol (to give a final concentration of 5 nM), 20 μL of unlabeled test compound, buffer or unlabeled muscimol, and 680 μL of 10 mM PBS, pH 7.4. […] Filters were washed with two 5 mL aliquots of cold buffer, and the radioactivity remaining on the filters was determined by liquid scintillation. […]
# [8] = target: T2, Drosophila Grd and LCCH3; assay: [3H] muscimol radioligand binding assay, membranes of High Five cells co-infected with vBP8-Grd/vBP8-LCCH3; remark: listed apart in the source
# [9] = target: T6, Drosophila Grd (Drosophila melanogaster, UniProt Q24352); assay: [3H] muscimol radioligand binding assay, membranes of High Five cells infected with vBP8-Grd; conditions: High Five cell membranes
# T6 construct: made in house; host or cells: High Five (Trichoplusia ni) cells, baculovirus vBP8-Grd
# T6 sequence (Q24352 59-686): T2 sequence (Q24352 59-686)
# Protocol: as §1, with “The membrane pellet was resuspended in 25 mL of 10 mM phosphate buffer pH 7.4, re-pelleted as above, and the pellet finally resuspended in 3 mL of buffer.” left out
# as §3
# [10] = half-maximal displacement of [3H] muscimol, read-out: IC50, Rdl
# [11] = half-maximal displacement of [3H] muscimol, read-out: IC50, Grd/LCCH3
# [12] = [3H] muscimol 5 nM, High Five cell membranes, non-specific = 10 μM GABA
# [13] = [3H] muscimol saturation binding, High Five cell membranes
# [14] = [3H] muscimol 5 nM, non-specific = 10 μM GABA
# [15] = [3H] muscimol saturation binding
# T4 sequence (P14867 28-456): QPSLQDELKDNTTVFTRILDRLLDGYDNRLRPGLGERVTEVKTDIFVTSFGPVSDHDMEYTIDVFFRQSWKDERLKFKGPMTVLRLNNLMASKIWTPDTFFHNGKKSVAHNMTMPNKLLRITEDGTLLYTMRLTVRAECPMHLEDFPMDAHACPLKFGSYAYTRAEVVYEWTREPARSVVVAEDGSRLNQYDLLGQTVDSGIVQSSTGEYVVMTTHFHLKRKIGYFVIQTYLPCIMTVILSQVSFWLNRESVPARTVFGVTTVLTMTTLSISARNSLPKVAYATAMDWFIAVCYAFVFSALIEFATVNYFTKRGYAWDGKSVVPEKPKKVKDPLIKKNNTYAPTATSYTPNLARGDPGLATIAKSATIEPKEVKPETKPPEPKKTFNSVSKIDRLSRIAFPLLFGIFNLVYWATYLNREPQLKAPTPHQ
# T4 sequence (P63138 25-474 limits assumed): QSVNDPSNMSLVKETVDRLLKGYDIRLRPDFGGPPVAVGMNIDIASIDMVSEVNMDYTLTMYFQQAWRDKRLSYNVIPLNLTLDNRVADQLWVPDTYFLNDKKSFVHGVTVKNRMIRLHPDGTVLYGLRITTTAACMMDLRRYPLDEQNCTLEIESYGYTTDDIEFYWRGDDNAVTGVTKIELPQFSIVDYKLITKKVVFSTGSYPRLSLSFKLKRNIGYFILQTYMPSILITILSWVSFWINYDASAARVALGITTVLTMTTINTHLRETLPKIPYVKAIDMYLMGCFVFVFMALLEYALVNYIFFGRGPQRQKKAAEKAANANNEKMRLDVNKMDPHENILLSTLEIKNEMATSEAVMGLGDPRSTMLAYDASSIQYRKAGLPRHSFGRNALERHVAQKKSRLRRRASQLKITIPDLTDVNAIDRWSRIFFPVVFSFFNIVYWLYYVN
smiles,measurement,setting,value
O=C(O)C1=CCNCC1 [Isoguavacine],IC50,[1],0.289 µM
same,IC50,[2],0.1 µM
same,IC50,[3]; [10],0.26 µM
same,IC50,[4]; [11],0.19 µM
O=C(O)C1CCNCC1 [Isonipecotic acid],IC50,[1],1.43 µM
same,IC50,[3]; [10],1.7 µM
same,IC50,[4]; [11],2.68 µM
NCc1cc(=O)[nH]o1 [Muscimol],IC50,[1],0.043 µM
same,IC50,[2],0.03 µM
same,IC50,[3]; [10],0.012 µM
same,IC50,[5]; half-maximal displacement of [3H] muscimol,0.023 µM
same,IC50,[4]; [11],0.015 µM
O=S(=O)(O)C1CCNCC1 [Piperidine-4-sulfonate],IC50,[3]; [10],> 1000 µM
same,IC50,[4]; [11],> 1000 µM
CP(=O)(O)CCCN [SKF-97541],IC50,[1],> 1000 µM
same,IC50,[3],> 1000 µM
same,IC50,[4],> 1000 µM
NCc1cc(O)no1 [[^3 H] muscimol],Kd,[1]; rat brain,0.028 µM
same,Kd,[2]; housefly heads,0.04 µM
same,% Specific Binding,[6],80%
same,Bmax,[3]; High Five cell membranes,0.11 pmol [3H] muscimol bound per m
same,% Specific Binding,[3]; [12],55%
same,Kd,[3]; [13],0.012 µM
same,% Specific Binding,[7]; [14],10%
same,Kd,[7]; [15],> 10 µM
same,maximum number of binding sites (Bmax) relative to vBP8-Rdl-infected cells,[8]; Grd/LCCH3 co-infected versus Rdl-infected cells,15 fold
same,Bmax,[8]; High Five cell membranes,1.85 pmol [3H] muscimol bound per m
same,Kd,[8]; [13],0.012 µM
same,Bmax,[5]; High Five cell membranes,0.64 pmol [3H] muscimol bound per m
same,% Specific Binding,[5]; [12],60%
same,Kd,[5]; [13],0.038 µM
same,% Specific Binding,[9]; [14],10%
same,Kd,[9]; [15],> 10 µM
same,% Specific Binding,[4]; [12],85%
same,specific binding of [3H]muscimol,[4]; cells 3 days after co-infection with vBP8-Grd and vBP8-LCCH3,High levels of specific binding
NC/C=C\C(=O)O [cis-4-amino-crotonic acid],IC50,[1],> 1000 µM
same,IC50,[3]; [10],2.91 µM
same,IC50,[4]; [11],1.62 µM
